# Measured values taken from ChEMBL document CHEMBL1201862, “PubChem BioAssay data set” (2004).
# Calls of active or inactive are those of the source.
# What was measured:
# Chaperone protein dnaK = Chaperone protein dnaK (Escherichia coli, UniProt C3TRK2); assay: E. coli DnaK binders, calorimetric Kd – biophysical, isothermal titration calorimetry, beta-domain, full-length DnaK, orthogonal assay for DnaK modulator project, SAR follow-up (AID 1495)
# [1] = tested on: Streptococcus sp. 'group A'; assay: Streptococcus pyogenes SK(-)GAS viability under kanamycin – luminescence, BacTiterGlo, confirmation, counter-screen for streptokinase expression inhibitor project, dose response (AID 1900); format: functional, organism-based
# [2] = Trypanosoma cruzi growth suppression in host cells – NIH3T3 host cells, beta-gal luminescence, confirmation (AID 2044); format: functional, cell-based;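 further: intracellular parasites grown in NIH/3T3 mouse fibroblasts as host cells; luminescent beta-galactosidase reporter signal from transgenic T. cruzi replicating inside host cells; inhibitors lower the luminescence signal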
# [3] = NIH3T3 cell viability loss – ATP luminescence, mouse fibroblasts, counter-screen, dose response (AID 2010); format: functional, cell-based;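 further: cells exposed to compound for about 90 hours before reading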
# Streptokinase A = biological target: T1, Streptokinase A (Streptococcus pyogenes serotype M1, UniProt P10520); assay: viability-normalized secreted streptokinase activity reduction – plasminogen activation absorbance, OD405, dose response (AID 1914); format: functional, Streptococcus pyogenes M1 GAS;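 further: secreted streptokinase activity via plasminogen activation per viability signal from cell pellet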
# T1 sequence (P10520 whole entry): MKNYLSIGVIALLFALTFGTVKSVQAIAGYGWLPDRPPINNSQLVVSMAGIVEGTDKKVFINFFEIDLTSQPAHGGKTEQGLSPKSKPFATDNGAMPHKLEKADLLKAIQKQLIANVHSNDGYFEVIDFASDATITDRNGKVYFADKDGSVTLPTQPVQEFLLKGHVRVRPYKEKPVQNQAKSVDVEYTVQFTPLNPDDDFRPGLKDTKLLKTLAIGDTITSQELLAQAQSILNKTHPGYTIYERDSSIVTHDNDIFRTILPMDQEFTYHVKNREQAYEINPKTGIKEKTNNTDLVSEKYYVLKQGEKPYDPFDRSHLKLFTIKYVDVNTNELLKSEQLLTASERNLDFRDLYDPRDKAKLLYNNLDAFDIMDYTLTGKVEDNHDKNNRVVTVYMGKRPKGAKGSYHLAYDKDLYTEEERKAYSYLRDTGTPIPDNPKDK
# Streptococcus = assay: GAS UMAA2166 growth inhibition – luminescence, BacTiterGlo, counter-screen for streptokinase expression inhibitor project, dose response (AID 1915); format: functional, organism-based;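 further: potency for reduction of bacterial viability or growth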
# [4] = biological target: Serine/threonine-protein phosphatase PP1-alpha catalytic subunit (Homo sapiens, UniProt P62136); assay: inhibition of protein phosphatase 1 activity – biochemical, fluorescence, dose response (AID 2403);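 further: phosphatase turnover of OMFP into fluorescent 3-O-methylfluorescein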
# [5] = biological target: Serine/threonine-protein phosphatase (Homo sapiens, UniProt Q9BPW0); assay: Counterscreen for inhibitors of PP1: fluorescence-based biochemical high throughput dose response assay to identify inhibitors of Protein Phosphatase 5 (PP5). [Related pubchem assays: 2034 (Summary (PP5 inhibitors)), 1987 (PP5 inhibitors in singlate), 2235 (PP1 inhibitors in singlate)]
# [6] = biological target: T2, Microphthalmia-associated transcription factor (Homo sapiens, UniProt O75030); assay: reducers of TRPM1 reporter luminescence, concentration series – cell-based, SK-MEL-5, cherry-picked, set 3, MITF inhibitor project, dose response (AID 493073); format: functional;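 further: SK-MEL-5 melanoma cells with luciferase driven by the MITF target TRPM1 promoter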
# T2 sequence (O75030 whole entry): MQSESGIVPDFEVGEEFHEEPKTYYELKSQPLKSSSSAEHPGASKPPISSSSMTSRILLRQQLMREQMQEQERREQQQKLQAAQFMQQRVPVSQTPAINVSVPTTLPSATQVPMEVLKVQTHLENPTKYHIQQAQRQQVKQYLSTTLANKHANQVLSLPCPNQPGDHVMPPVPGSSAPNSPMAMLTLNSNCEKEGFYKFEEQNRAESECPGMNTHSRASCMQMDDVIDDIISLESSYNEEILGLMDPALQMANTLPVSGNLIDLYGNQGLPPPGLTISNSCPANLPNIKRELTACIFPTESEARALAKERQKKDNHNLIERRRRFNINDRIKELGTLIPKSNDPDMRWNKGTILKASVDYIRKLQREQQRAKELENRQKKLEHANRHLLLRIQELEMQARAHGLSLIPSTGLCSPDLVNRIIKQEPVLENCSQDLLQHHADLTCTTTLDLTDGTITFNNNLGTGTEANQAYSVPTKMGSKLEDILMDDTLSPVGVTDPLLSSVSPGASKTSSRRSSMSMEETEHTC
# [7] = Luminescence-based counterscreen assay for KLF5 inhibitors: dose response cell-based high throughput screening assay to identify cytotoxic compounds using the IEC-6 intestinal epithelial cell line. [Related pubchem assays: 1700 (Primary screen.), 1834 (Confirmation screen.), 1858 (Summary AID.), 1905 (Counterscreen.)]; format: functional
# [8] = biological target: T3, Eukaryotic translation initiation factor 2-alpha kinase 3 (Homo sapiens, UniProt Q9NZJ5); assay: Dose response cell-based high-throughput screening assay to measure PERK inhibition. [Related pubchem assays: 1416 ]; format: functional
# [9] = biological target: T3, Eukaryotic translation initiation factor 2-alpha kinase 3; assay: Counterscreen assay for PERK inhibitors: Dose response cell-based high throughput screening assay to measure inhibition of PERK at 6 hours. [Related pubchem assays: 1522, 1416 ]; format: functional
# [10] = antiviral protection against BTV-induced cell death – arbovirus, BSR cells, confirmation (AID 1250); format: functional;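 further: protection from viral cytopathic effect measured as cell viability by ATP luminescence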
# [11] = M. tuberculosis H37Rv growth inhibitors, H37Rv strain (AID 1626); format: functional
# Aminopeptidase N = biological target: T4, Aminopeptidase N (Plasmodium falciparum FcB1/Columbia, UniProt O96935); assay: malaria alanyl aminopeptidase activity blockers – biochemical, fluorogenic H-Leu-NHMec substrate, 1536-well (AID 1445); set-up: species or system Plasmodium falciparum 3D7, 3D7
# T4 sequence (O96935 whole entry): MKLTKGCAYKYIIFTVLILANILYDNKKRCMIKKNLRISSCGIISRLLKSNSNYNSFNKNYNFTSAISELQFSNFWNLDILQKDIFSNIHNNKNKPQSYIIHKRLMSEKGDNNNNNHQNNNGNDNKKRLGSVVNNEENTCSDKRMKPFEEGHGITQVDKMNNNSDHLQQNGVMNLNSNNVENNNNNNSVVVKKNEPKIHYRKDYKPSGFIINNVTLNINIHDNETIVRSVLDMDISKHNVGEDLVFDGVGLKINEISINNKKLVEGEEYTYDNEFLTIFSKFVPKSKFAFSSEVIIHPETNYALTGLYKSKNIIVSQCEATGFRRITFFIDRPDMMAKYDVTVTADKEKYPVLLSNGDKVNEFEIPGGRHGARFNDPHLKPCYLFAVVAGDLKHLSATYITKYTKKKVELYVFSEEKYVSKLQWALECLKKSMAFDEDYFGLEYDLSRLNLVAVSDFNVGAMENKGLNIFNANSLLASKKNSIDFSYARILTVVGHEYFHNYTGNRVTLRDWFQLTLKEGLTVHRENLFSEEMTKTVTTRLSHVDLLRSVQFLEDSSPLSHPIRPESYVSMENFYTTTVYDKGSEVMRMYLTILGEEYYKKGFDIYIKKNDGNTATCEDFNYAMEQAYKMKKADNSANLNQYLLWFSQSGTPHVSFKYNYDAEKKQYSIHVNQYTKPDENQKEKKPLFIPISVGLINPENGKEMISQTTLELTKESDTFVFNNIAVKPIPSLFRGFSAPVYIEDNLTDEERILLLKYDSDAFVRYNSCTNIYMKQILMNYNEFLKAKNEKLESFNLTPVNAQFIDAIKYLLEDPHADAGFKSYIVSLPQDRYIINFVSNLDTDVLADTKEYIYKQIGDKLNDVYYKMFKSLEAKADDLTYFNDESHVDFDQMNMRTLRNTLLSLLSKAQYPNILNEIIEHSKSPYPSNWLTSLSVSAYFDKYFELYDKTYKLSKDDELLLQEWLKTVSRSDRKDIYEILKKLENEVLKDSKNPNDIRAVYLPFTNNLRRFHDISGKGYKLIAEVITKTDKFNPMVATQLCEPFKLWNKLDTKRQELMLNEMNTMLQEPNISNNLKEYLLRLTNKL
# Melanocortin receptor 4 = Melanocortin receptor 4 (Homo sapiens, UniProt P32245); assay: inhibitors of MC4R cAMP signaling – cell-based, TR-FRET, biased antagonists, dose response (AID 602298); format: functional;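 further: antagonist potency against agonist-stimulated cAMP production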
# [12] = cAMP pathway inhibition in counterscreen cell line – TR-FRET cAMP detection, counter-screen for MC4R biased antagonist project, dose response (AID 602305); format: functional, cell-based;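 further: U2OS cells stimulated with forskolin near its EC80 as the cAMP inducer; potency is for inhibition of forskolin-stimulated cAMP signaling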
# Vero [13] = assay: host cell viability loss, Vero E6 – synthesized analogs, cytotoxicity control for West Nile virus antiviral project, SAR follow-up (AID 2244); format: functional; conditions: Chlorocebus sabaeus
# Vero [14] = assay: Vero cell viability after compound exposure – synthesized analogs, set II, cytotoxicity control for West Nile virus antiviral project, SAR follow-up (AID 2402); format: functional; conditions: Chlorocebus sabaeus
# [15] = viability of uninfected HEp-2 cells – cell-based, HTS, cytotoxicity control for RSV inhibitor project, dose response (AID 2410); format: functional; conditions: human respiratory syncytial virus
# [16] = biological target: Acyl-homoserine lactone acylase PvdQ (Pseudomonas aeruginosa (strain LESB58), UniProt Q9I194); assay: PvdQ acylase enzyme activity blockers – biochemical, fluorescence, plate reader and imaging, cherry-picks, dose response (AID 493231)
# Cytochrome P450 2D6 = Cytochrome P450 2D6 (Homo sapiens, UniProt P10635); assay: qHTS Assay for Inhibitors and Substrates of Cytochrome P450 2D6. [Related pubchem assays: 410 ]; format: ADME; conditions: read-out: Potency
# [17] = biological target: Voltage-gated N-type calcium channel alpha-1B subunit/Amyloid beta A4 precursor protein-binding family A member 1 (Homo sapiens, UniProt Q00975+Q02410); assay: disruptors of Mint-PDZ/N-type channel peptide interaction – biochemical, HTRF, set 2, SAR follow-up (AID 434980); format: functional
# [18] = biological target: Melanin-concentrating hormone receptor 1 (Homo sapiens, UniProt Q99705); assay: Late-stage fluorescence-based counterscreen for antagonists of the G-protein coupled receptor 7 (GPR7): cell-based dose response assay to identify antagonists of the melanin-concentrating hormone receptor 1 (MCHR1). [Related pubchem assays (depositor defined):AID1861, AID1880, AID1952, AID2148, AID2251, AID2257, AID485339]; format: functional;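 further: stimulated with 30 nM MCH peptide agonist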
# [19] = biological target: Heat shock cognate 71 kDa protein (Homo sapiens, UniProt P11142); assay: In Vitro Hsc70 Dose Response Fluorescence Polarization Assay. [Related pubchem assays: 1072 ]
# [20] = biological target: Heat shock 70 kDa protein 1A (Homo sapiens, UniProt P0DMV8); assay: inhibition of Hsp70 binding activity – biochemical, fluorescence polarization, SAR follow-up (AID 1072)
# Staphylococcus aureus = assay: Inhibitors of Bacterial Quorum Sensing Structure Activity Relationship (SAR) Analysis: Dose Response Assay. [Related pubchem assays: 700, 527 ]; format: functional, organism-based
# Genome polyprotein = Genome polyprotein (dengue virus type 2, UniProt P29990); assay: flavivirus cap methylation enzyme inhibition – biochemical, confirmation dose response, primary screen (AID 588689); format: functional
# Genome polyprotein, sequence (P29990 2492-3391 limits assumed): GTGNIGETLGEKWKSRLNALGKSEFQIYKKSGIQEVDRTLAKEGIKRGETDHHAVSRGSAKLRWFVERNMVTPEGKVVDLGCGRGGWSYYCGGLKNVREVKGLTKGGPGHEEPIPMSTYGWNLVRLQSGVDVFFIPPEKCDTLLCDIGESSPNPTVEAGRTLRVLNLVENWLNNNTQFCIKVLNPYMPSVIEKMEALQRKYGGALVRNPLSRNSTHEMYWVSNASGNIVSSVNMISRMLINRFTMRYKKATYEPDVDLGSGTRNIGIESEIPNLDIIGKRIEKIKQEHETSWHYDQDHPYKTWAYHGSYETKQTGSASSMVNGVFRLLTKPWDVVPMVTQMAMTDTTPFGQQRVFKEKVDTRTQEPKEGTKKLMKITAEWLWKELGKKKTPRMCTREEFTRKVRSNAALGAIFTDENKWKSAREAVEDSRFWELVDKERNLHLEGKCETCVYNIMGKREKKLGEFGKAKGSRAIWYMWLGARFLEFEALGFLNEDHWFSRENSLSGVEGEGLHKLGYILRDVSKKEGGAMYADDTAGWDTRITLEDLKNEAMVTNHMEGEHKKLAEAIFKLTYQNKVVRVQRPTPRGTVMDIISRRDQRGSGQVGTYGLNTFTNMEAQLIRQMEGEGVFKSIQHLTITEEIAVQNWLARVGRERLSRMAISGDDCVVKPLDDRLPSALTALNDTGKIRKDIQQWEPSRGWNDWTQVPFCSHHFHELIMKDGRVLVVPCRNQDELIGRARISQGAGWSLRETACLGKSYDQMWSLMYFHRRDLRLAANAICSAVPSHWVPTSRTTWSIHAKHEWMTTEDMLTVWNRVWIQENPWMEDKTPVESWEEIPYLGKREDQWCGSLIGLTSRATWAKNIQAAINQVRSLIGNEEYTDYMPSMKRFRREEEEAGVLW
# T3 sequence (Q9NZJ5 whole entry): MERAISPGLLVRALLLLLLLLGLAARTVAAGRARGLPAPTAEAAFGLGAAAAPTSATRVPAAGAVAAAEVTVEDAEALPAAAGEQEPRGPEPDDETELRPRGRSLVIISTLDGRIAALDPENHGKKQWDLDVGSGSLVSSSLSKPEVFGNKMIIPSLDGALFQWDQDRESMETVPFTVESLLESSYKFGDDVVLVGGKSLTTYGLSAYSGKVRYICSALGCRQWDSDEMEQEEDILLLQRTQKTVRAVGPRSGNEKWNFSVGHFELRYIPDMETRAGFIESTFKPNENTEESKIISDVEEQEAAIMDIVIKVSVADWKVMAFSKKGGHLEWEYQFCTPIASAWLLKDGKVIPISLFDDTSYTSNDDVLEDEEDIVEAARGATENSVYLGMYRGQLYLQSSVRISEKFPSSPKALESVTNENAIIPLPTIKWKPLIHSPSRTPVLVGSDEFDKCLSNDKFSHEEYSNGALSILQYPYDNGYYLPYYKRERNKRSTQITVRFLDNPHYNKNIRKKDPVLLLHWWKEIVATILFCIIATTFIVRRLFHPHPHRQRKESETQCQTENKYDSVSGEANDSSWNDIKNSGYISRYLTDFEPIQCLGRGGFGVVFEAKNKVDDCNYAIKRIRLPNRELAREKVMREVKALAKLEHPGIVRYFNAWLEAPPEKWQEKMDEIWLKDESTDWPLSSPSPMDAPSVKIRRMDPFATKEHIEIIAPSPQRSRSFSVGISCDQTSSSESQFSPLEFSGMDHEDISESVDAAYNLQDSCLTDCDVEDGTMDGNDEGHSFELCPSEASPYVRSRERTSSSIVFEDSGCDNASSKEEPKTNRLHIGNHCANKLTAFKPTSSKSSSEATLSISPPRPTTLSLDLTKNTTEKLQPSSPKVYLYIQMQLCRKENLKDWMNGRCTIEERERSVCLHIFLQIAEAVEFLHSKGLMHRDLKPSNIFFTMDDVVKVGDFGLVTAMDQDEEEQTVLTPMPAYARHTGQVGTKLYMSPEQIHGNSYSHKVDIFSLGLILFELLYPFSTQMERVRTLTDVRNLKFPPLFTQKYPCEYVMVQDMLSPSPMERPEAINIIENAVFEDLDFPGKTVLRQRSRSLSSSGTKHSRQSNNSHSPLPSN
# Heat shock 70 kDa protein 1A, sequence (P0DMV8 whole entry): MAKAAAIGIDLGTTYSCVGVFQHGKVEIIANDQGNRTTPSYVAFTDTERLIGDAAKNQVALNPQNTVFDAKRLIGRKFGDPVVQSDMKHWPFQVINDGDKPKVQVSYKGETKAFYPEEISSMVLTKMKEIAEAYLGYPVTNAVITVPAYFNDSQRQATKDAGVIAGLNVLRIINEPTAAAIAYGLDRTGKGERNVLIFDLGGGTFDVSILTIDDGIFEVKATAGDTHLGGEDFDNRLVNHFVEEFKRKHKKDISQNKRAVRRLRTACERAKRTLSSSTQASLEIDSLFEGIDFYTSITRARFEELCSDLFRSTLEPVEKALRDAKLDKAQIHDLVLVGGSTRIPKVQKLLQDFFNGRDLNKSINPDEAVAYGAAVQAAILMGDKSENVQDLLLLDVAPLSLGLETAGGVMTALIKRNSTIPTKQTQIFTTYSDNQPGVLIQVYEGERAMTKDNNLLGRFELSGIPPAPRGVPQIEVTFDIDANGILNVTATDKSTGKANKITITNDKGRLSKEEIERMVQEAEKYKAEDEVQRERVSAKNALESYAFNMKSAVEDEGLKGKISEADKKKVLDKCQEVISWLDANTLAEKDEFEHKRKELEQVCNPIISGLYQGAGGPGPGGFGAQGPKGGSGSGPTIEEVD
# Serine/threonine-protein phosphatase PP1-alpha catalytic subunit, sequence (P62136 whole entry): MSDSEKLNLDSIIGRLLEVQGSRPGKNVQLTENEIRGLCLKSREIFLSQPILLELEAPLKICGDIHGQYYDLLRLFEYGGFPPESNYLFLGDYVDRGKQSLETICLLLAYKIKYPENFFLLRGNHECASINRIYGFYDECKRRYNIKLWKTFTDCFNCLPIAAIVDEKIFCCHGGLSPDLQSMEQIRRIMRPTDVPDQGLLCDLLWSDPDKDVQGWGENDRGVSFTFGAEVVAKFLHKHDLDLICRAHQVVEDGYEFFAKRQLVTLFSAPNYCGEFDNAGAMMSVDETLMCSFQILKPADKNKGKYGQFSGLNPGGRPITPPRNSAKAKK
# Chaperone protein dnaK, sequence (C3TRK2 whole entry): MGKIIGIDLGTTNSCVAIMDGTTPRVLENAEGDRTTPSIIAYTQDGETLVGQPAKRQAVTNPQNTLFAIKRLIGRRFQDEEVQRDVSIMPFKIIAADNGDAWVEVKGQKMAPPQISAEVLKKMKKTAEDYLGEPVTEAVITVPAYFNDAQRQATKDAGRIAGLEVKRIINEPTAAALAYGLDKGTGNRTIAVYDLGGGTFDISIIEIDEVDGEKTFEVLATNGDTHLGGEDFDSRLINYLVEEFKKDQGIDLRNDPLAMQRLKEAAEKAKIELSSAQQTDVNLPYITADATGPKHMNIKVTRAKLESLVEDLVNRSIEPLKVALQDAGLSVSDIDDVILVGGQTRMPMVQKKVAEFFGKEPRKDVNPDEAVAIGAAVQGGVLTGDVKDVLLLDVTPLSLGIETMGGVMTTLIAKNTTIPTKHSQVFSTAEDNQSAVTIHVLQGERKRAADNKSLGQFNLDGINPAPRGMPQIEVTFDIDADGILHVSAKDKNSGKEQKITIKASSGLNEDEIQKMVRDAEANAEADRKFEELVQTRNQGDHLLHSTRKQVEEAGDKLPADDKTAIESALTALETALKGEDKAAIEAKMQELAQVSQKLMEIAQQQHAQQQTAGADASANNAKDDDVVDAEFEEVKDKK
# Cytochrome P450 2D6, sequence (P10635 whole entry): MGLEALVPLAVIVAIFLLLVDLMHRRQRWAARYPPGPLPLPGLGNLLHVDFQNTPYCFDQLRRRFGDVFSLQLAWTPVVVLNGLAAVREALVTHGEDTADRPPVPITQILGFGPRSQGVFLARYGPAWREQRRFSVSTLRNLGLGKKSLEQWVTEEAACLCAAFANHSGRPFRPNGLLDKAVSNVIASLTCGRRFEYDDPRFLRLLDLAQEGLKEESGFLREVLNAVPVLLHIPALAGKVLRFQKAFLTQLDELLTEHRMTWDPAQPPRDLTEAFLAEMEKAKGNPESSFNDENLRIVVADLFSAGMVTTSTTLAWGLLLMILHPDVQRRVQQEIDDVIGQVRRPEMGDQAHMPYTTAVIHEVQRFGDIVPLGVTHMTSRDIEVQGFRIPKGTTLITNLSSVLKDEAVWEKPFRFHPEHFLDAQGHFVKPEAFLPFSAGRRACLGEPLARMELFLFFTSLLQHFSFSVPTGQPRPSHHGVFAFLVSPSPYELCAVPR
# Acyl-homoserine lactone acylase PvdQ, sequence (Q9I194 24-193 limits assumed): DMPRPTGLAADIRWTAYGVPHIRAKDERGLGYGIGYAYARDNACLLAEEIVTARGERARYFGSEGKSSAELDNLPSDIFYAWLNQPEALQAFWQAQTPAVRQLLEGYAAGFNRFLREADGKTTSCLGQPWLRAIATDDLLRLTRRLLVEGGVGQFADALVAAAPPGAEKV
# Acyl-homoserine lactone acylase PvdQ, sequence (Q9I194 217-762 limits assumed): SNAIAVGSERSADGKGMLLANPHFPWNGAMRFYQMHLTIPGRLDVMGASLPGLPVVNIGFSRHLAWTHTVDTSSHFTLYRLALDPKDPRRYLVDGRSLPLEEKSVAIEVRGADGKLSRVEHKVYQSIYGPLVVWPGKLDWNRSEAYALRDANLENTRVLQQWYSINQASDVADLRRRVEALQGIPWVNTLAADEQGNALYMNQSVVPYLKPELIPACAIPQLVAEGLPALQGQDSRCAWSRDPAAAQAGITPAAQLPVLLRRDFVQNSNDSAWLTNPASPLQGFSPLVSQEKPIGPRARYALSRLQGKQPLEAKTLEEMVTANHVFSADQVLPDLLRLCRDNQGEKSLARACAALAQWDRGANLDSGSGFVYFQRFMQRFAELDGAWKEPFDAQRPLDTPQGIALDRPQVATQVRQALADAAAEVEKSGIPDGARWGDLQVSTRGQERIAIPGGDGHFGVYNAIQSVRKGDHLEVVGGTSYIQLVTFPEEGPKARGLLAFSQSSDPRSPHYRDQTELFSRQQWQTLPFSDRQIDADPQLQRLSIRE
structure (smiles),measurement,setting,value
O=C(Nc1ccc2[nH]ccc2c1)c1cccs1,Kd,Chaperone protein dnaK,12.7 µM (active)
COc1ccc(OCCCC(=O)Nc2nc(-c3ccccn3)cs2)cc1,EC50,[1],31.2 µM (active)
same,EC50,[2],3.24 µM (active)
same,EC50,[3],4.35 µM (active)
same,EC50,Streptokinase A,> 150 µM (not active)
same,EC50,Streptococcus,> 150 µM (not active)
same,IC50,[4],4.59 µM (active)
same,IC50,[5],> 67 µM (not active)
CCCc1ccc(-c2ccc(/C=C/C(=O)O)cc2)nc1,AC50,[6],0.039 µM (active)
same,IC50,[7],> 39.8 µM (not active)
COc1cc([N+](=O)[O-])cc2sc(NC(=O)C(C)(C)C)nc12,EC50,[8],> 55.7 µM (not active)
same,EC50,[9],> 55.7 µM (not active)
CCOc1ccc2nc(NC(=O)CSc3nc(O)c(C#N)c(-c4ccccc4)n3)sc2c1,IC50,[10],37.9 µM (active)
same,IC50,[11],> 100 µM (active)
same,IC50,Aminopeptidase N,24.1 µM (active)
same,IC50,Melanocortin receptor 4,> 64.6 µM (inactive)
same,IC50,[12],> 64.6 µM (inactive)
CCCN(C(=O)c1ccccc1Cl)c1nc(-c2ccc(OC)cc2)cs1,CC50,Vero [13],> 40 µM (active)
same,CC50,Vero [14],63.2 µM (active)
COc1ccc(CCNC(=O)c2ccc(-c3ccc([N+](=O)[O-])cc3Cl)o2)cc1,IC50,cells,25.5 µM (active)
same,CC50,[15],33.6 µM (active)
CC1SCC(NC(=O)c2cccc(Cl)c2)CS1 (centres undefined),AC50,[16],> 100 µM (inactive)
COc1ccc2c(=O)cc(-c3ccc(O)cc3)oc2c1,AC50,Cytochrome P450 2D6,15.8 µM (inconclusive)
O=C(Nc1ncc(-c2ccccc2)o1)c1cc(-c2ccco2)nc2ccccc12,IC50,[17],> 56.8 µM (inactive)
COc1ccc(Oc2c(Br)cnn(-c3ccc(C(C)C)cc3)c2=O)cc1,IC50,[18],0.72 µM (active)
O=C(O)C1CCCCC1c1c2ccc(=O)c(O)c-2oc2c(O)c(O)ccc12 (centres undefined),IC50,[19],42.4 µM (active)
same,IC50,[20],9.85 µM (active)
CC(C)c1ccc(S(=O)(=O)c2nnn3c2nc(O)c2ccccc23)cc1 [SAVIRIN],IC50,Staphylococcus aureus,0.25 µM (active)
same,IC50,Genome polyprotein,51.5 µM (active)
